Laboratory results as given in PMC7956166, “Phage-Display Based Discovery and Characterization of Peptide Ligands against WDR5” (Molecules, 2021).
Positions of bridges follow the written chain, without caps; N, C: chain ends. Residues, ends and D or L forms follow the SMILES beside them. No end group written: not given here.

Molecular target: T1, WDR5 (Homo sapiens, UniProt P61964)
T1 construct: DNA fragment encoding amino acids 23 to 483 of WDR5 subcloned in the pET-28a plasmid; His6 (N); SUMO (N); made in house; host or cells: Escherichia coli BL21(DE3)
Assay: Fluorescence polarization (FP) competitive binding assay
Settings: for EC50: FP competitive assay vs fluorescently labeled tracer (2.5 nM), 0.2 M phosphate, 300 mM NaCl, 0.1% CHAPS, pH 6.5, 0.5 mM TCEP, 4 h incubation, 384-well plate, two independent experiments; for EC50 / Ki: mean ± standard error; for Ki: Ki from nonlinear regression fitting based on Kd of the probe, protein 5 nM
Experimental: The fluorescence polarization (FP) binding assays used to evaluate the ability of these cyclic peptides targeting protein WDR5 were carried out in the 384-well plate. We synthesized the fluorescently labeled positive compound [28, 29]: 1-((3′,6′-dihydroxy-3-oxo-3H-spiro[isobenzofuran-1,9′-xanthen]-5-yl)amino)-N-(3′-(3,5-dimethylbenzamido)-4′-(4-methylpiperazin-1-yl)-[1,1′-biphenyl]-4-yl)-1-thioxo-5,8,11-trioxa-2-azatetradecan-14-amide, which was used in direct binding assay against WDR5. 10 μL of 10 nM positive compound was added to 20 μL WDR5(the final concentration was 5 nM) in the buffer containing 0.2 M phosphate; 300 mM NaCl; 0.1%CHAPS; PH 6.5; 0.5 mM TCEP. Then the peptide compound to be tested was diluted in a gradient and added to each well with 10μL. Finally, the assay was carried out in 40 μL volume and the protein tracer mixture was incubated for 4 h before reading the plate. The fluorescence polarization was measured in Synergy™ Neo2 Multi-Mode Microplate Reader using an excitation filter at 485 nm and an emission filter at 535 nm. Each experiment was done two times and each polarization readings consisted of two averaged measurements. The reading is processed by the following formula:(1) Inhibition=C−F/C−B×100% where C is the anisotropy value of the fluorescence substrate bound to the protein completely, B is the anisotropy value of the fluorescence substrate, F is the corresponding anisotropy value after adding different concentrations of peptides. The data were plotted against the log peptide concentration and was fitted into a one site-Fit logIC50 equation with Graphpad Prim5 software using nonlinear regression model to obtain the competitive curve:(2) Y=A+B−A/1+10^(x−LogIC50) where x is log10 of the compound concentration in M, Y is the inflection point (EC50 or IC50), A is the bottom plateau effect, B is the top plateau effect. Potency (IC50/EC50) is the log of the concentration of competitor that results in binding half-way between bottom and top.
The EC50 values of peptides were determined in competitive binding experiments by nonlinear regression fitting of the competition curves as mentioned above. And Ki values of competitive inhibitors were obtained directly by nonlinear regression fitting, based upon the Kd values of the probe to different proteins and concentrations of the proteins and probes in the competitive assays. The data is processed by the following formula:(3) F0=P+L0+Kd−(P+L0+Kd)^2−4×P×L0/2×L0 (4) IC50/F0×Kd/(1−F0)(2−F0)+F0×L0/2=Ki(2−F0)/Kd×F0+1 where P is the proteins concentration in the assay (5 nM), L0 is the Tracer concentration in the assay (2.5 nM), F0 and the corresponding Ki value can be calculated according to the above formula.

[1] = FP competitive assay, tracer 2.5 nM

| Compound | EC50 (WDR5 5 nM) [µM] | Ki [1] [µM] | binding to WDR5 (in words) (FP competitive assay, WDR5 5 nM, tracer 2.5 nM, pH 6.5) |
| --- | --- | --- | --- |
| CC(C)C[C@@H]1NC(=O)[C@H]([C@@H](C)O)NC(=O)[C@H](CCCNC(=N)N)NC(=O)[C@@H](N)CSSC[C@@H](C(=O)O)NC(=O)[C@H](CCC(=O)O)NC(=O)[C@H](Cc2c[nH]cn2)NC(=O)[C@H](Cc2ccccc2)NC(=O)[C@@H]2CCCN2C1=O [D206115] (H-CRTLPFHEC-OH; disulfide 1-9) | 5.9 ± 0.2 | 1.2 ± 0.04 | – |
| CC(C)C[C@@H]1NC(=O)[C@H]([C@@H](C)O)NC(=O)[C@H](CCCNC(=N)N)NC(=O)[C@@H](N)CSSC[C@@H](C(=O)O)NC(=O)[C@H](CC(N)=O)NC(=O)[C@H](CC(N)=O)NC(=O)[C@H](Cc2c[nH]c3ccccc23)NC(=O)[C@@H]2CCCN2C1=O [D206179] (H-CRTLPWNNC-OH; disulfide 1-9) | 2.3 ± 0.6 | 0.5 ± 0.1 | – |
| CC(C)C[C@@H]1NC(=O)[C@H]([C@@H](C)O)NC(=O)[C@H](CCCNC(=N)N)NC(=O)[C@@H](N)CSSC[C@@H](C(=O)O)NC(=O)[C@H](C)NC(=O)CNC(=O)[C@H](Cc2ccc(O)cc2)NC(=O)[C@@H]2CCCN2C1=O [D206180] (H-CRTLPYGAC-OH; disulfide 1-9) | 2.7 ± 0.2 | 0.5 ± 0.05 | – |
| CC(C)C[C@@H]1NC(=O)[C@H]([C@@H](C)O)NC(=O)[C@H](CCCNC(=N)N)NC(=O)[C@@H](N)CSSC[C@@H](C(=O)O)NC(=O)[C@H](CO)NC(=O)CNC(=O)[C@H](Cc2ccccc2)NC(=O)[C@@H]2CCCN2C1=O [D206181] (H-CRTLPFGSC-OH; disulfide 1-9) | 4.4 ± 0.4 | 0.9 ± 0.08 | – |
| CEKMVATHC (disulfide 1-9 (inferred)) [D206116, disulfide-constrained cyclic peptide from phage display, without “RT” motif] | – | – | unable to bind to WDR5 |
